Measurements as given in ChEMBL document CHEMBL2203134, “Discovery of XL888: a novel tropane-derived small molecule inhibitor of HSP90” (Bioorg Med Chem Lett, 2012).
Values after ≈ are worked out from the molar mass of the structure shown. Active and inactive are the calls of the source. The rule behind the calls is not given here.

Assays:
Rattus norvegicus [1] = assay: Dose normalized AUC in rat at 2.5 mg/kg, iv; assay type: ADME, organism-based; parameters: dose 2.5 mg/kg, route intravenous; conditions: in vivo
[2] = Clearance in rat at 2.5 mg/kg, iv; assay type: ADME, organism-based; parameters: dose 2.5 mg/kg, route intravenous; conditions: in vivo
Heat shock protein HSP90 [3] = target: T1, Heat shock protein HSP90 (Homo sapiens, UniProt P07900+P08238); assay: Inhibition of Hsp90 in human NCI-N87 cells assessed as Her2 degradation after 24 hrs by Western blot analysis; assay type: cell-based
[4] = Apparent permeability across MDCK cells; assay type: ADME, cell-based, Canis lupus familiaris; conditions: dog
[5] = Oral bioavailability in rat at 2.5 mg/kg; assay type: ADME, organism-based; conditions: in vivo
[6] = Half life in rat at 2.5 mg/kg, iv; assay type: ADME, organism-based; parameters: dose 2.5 mg/kg, route intravenous; conditions: in vivo
[7] = Kinetic solubility of the compound; assay type: physicochemical; conditions: read-out: Kinetic_solubility
[8] = Half life in iv dosed rat; assay type: ADME, organism-based; conditions: in vivo
[9] = Clearance in iv dosed rat; assay type: ADME, organism-based; conditions: in vivo
Rattus norvegicus [10] = assay: Dose normalized AUC in iv dosed rat; assay type: ADME, organism-based; conditions: in vivo
[11] = Drug metabolism in human liver microsomes at 15 uM after 30 mins; assay type: ADME, Microsome; conditions: read-out: Drug metabolism
Heat shock protein HSP90 [12] = target: T1, Heat shock protein HSP90; assay: Inhibition of Hsp90 in human A549 cells assessed as Raf1 degradation after 24 hrs by Western blot analysis; assay type: cell-based
[13] = Oral bioavailability in rat; assay type: ADME, organism-based; conditions: in vivo
Heat shock protein HSP90 [14] = target: T1, Heat shock protein HSP90; assay: Displacement of biotinylated geldanamycin from human His-tagged Hsp90 by TR-FRET assay; assay type: protein assay
Mus musculus [15] = assay: Inhibition of Hsp90 in human COLO205 cells xenografted in mouse assessed as Her2 degradation at 100 mg/kg administered QD for 2 days measured 8 hrs post-last dose; assay type: functional; conditions: COLO 205
Mus musculus [16] = assay: Inhibition of Hsp90 in human COLO205 cells xenografted in mouse assessed as Raf1 degradation at 100 mg/kg administered QD for 2 days measured 8 hrs post-last dose; assay type: functional; conditions: COLO 205
[17] = Oral bioavailability in rat at 5 mg/kg; assay type: ADME, organism-based; conditions: in vivo
[18] = Clearance in rat at 5 mg/kg, iv; assay type: ADME, organism-based; parameters: dose 5 mg/kg, route intravenous; conditions: in vivo
[19] = Half life in rat at 5 mg/kg, iv; assay type: ADME, organism-based; parameters: dose 5 mg/kg, route intravenous; conditions: in vivo
Rattus norvegicus [20] = assay: Dose normalized AUC in rat at 5 mg/kg, iv; assay type: ADME, organism-based; parameters: dose 5 mg/kg, route intravenous; conditions: in vivo
[21] = Drug metabolism in mouse liver microsomes at 15 uM after 30 mins; assay type: ADME, Microsome; conditions: read-out: Drug metabolism

`CC[C@H](C)Nc1cc(C(=O)NC2CC3CCC(C2)N3c2ccc(C(=O)C3CC3)cn2)c(C)cc1C(N)=O` (stereo partly drawn) gave an AUC/dose (Rattus norvegicus [1]) of 0.87 µM·kg·h/mg, a clearance [2] of 38.5 mL/min/kg and an IC50 (Heat shock protein HSP90 [3]) of 252 nM. The Papp [4] was 24 ×10⁻⁶ cm/s, the bioavailability [5] was 20% and the half-life [6] was 1 h.

Compound `COc1cccc(C(=O)NC2CC3CCC(C2)N3c2ccc(C(=O)N[C@@H](C)c3ccc(N4CCN(C)CC4)cc3)cn2)c1C` (stereo partly drawn) has a solubility kinetic [7] of 447 µM (≈ 267 µg/mL), a half-life [8] of 6.4 h and a clearance [9] of 34.3 mL/min/kg. For the same compound, the AUC/dose (Rattus norvegicus [10]) was 0.71 µM·kg·h/mg, the metabolised at 0.5 h, 15 µM [11] was 37% and the Papp [4] was 6.3 ×10⁻⁶ cm/s. For the same compound, the IC50 (Heat shock protein HSP90 [12]) was 374 nM, the bioavailability [13] was 30% and the IC50 (Heat shock protein HSP90 [14]) was 200 nM.

For `COc1cccc(C(=O)NC2CC3CCC(C2)N3c2ccc(C(=O)N[C@H](C)c3ccccc3)cn2)c1C` (stereo partly drawn), the IC50 (Heat shock protein HSP90 [12]) was over 10000 nM and the IC50 (Heat shock protein HSP90 [14]) was 7450 nM.

In the case of `CCC(CC)Nc1cc(C(=O)NC2CC3CCC(C2)N3c2ccc(C(=O)C3CC3)cn2)c(C)cc1C(N)=O` (stereo not drawn), the AUC/dose (Rattus norvegicus [1]) is reported as 1.04 µM·kg·h/mg, the clearance [2] is reported as 30.8 mL/min/kg and the IC50 (Heat shock protein HSP90 [3]) is reported as 82 nM. It also gave a Papp [4] of 14.3 ×10⁻⁶ cm/s, a bioavailability [5] of 29% and a half-life [6] of 1.8 h. It also gave an IC50 (Heat shock protein HSP90 [14]) of 25 nM.

`CC(=O)c1ccc(N2C3CCC2CC(NC(=O)c2ccc(C(N)=O)c(NCC4CC4)c2)C3)nc1` (stereo not drawn) gave an AUC/dose (Rattus norvegicus [1]) of 0.5 µM·kg·h/mg, a clearance [2] of 71.5 mL/min/kg and an IC50 (Heat shock protein HSP90 [3]) of 182 nM. The Papp [4] was 44.2 ×10⁻⁶ cm/s, the bioavailability [5] was 42% and the half-life [6] was 7 h. It also gave an IC50 (Heat shock protein HSP90 [14]) of 40 nM.

In the case of `C[C@H](NC(=O)c1ccc(N2C3CCC2CC(NC(=O)c2ccc(C(N)=O)c(NCC4CC4)c2)C3)nc1)c1ccc(N2CCN(C)CC2)cc1` (stereo partly drawn), the clearance [9] is reported as 157 mL/min/kg, the Papp [4] is reported as 0.15 ×10⁻⁶ cm/s and the IC50 (Heat shock protein HSP90 [12]) is reported as 42 nM. The IC50 (Heat shock protein HSP90 [14]) was 80 nM.

In the case of `CO[C@H]1/C=C\C=C(/C)C(=O)NC2=CC(=O)C(NCCN(C)C)=C(C[C@@H](C)C[C@H](OC)[C@H](O)[C@@H](C)/C=C(\C)[C@@H]1OC(N)=O)C2=O` [ALVESPIMYCIN], the inhibition (Mus musculus [15]) is reported as “inactive” and the inhibition in vivo at 100 mg/kg (Mus musculus [16]) is reported as 84%.

Work on `Cc1cc(C(=O)NC2CC3CCC(C2)N3c2ccc(C(=O)N[C@@H](C)c3ccc(N4CCN(C)CC4)cc3)cn2)c(C)cc1C(N)=O` (stereo partly drawn) yielded a Papp [4] of under 0.01 ×10⁻⁶ cm/s, an IC50 (Heat shock protein HSP90 [12]) of 2900 nM and an IC50 (Heat shock protein HSP90 [14]) of 53 nM.

Compound `CCC(CC)Nc1cc(C(=O)NC2CC3CCC(C2)N3c2ccc(C(C)=O)cn2)c(C)cc1C(N)=O` (stereo not drawn) has a bioavailability [17] of 4%, an IC50 (Heat shock protein HSP90 [3]) of 44 nM and a clearance [18] of 51.8 mL/min/kg. For the same compound, the half-life [19] was 1.7 h, the AUC/dose (Rattus norvegicus [20]) was 0.6 µM·kg·h/mg and the IC50 (Heat shock protein HSP90 [14]) was 28 nM.

In the case of `O=C(NCc1ccccc1)c1ccc(N2C3CCC2CC(NC(=O)c2ccc(CO)cc2)C3)nc1` (stereo not drawn), the Papp [4] is reported as 2.5 ×10⁻⁶ cm/s, the IC50 (Heat shock protein HSP90 [12]) is reported as 5400 nM and the IC50 (Heat shock protein HSP90 [14]) is reported as 322 nM.

`Cc1cc(C(N)=O)c(NCC2CC2)cc1C(=O)NC1CC2CCC(C1)N2c1ccc(C(=O)C2CC2)cn1` (stereo not drawn) showed an AUC/dose (Rattus norvegicus [1]) of 1.7 µM·kg·h/mg, a clearance [2] of 19.7 mL/min/kg and an IC50 (Heat shock protein HSP90 [3]) of 245 nM. For the same compound, the Papp [4] was 22.3 ×10⁻⁶ cm/s, the bioavailability [5] was 51% and the half-life [6] was 0.9 h. It also gave an IC50 (Heat shock protein HSP90 [14]) of 25 nM.

`Cc1cc(C(N)=O)ccc1C(=O)NC1CC2CCC(C1)N2c1ccc(C(=O)NCc2ccccc2)cn1` (stereo not drawn) showed a Papp [4] of 0.21 ×10⁻⁶ cm/s, an IC50 (Heat shock protein HSP90 [12]) of 2700 nM and an IC50 (Heat shock protein HSP90 [14]) of 598 nM.

`NC(=O)c1ccc(C(=O)NC2CC3CCC(C2)N3c2ccc(C(=O)NCc3ccccc3)cn2)cc1` (stereo not drawn) gave a Papp [4] of 0.06 ×10⁻⁶ cm/s, an IC50 (Heat shock protein HSP90 [12]) of 5200 nM and an IC50 (Heat shock protein HSP90 [14]) of 445 nM.

With `COc1cccc(C(=O)NC2CC3CCC(C2)N3c2ccc(C(=O)NCc3ccccc3)cn2)c1C` (stereo not drawn) the solubility kinetic [7] was 4.1 µM (≈ 1.99 µg/mL), the AUC/dose (Rattus norvegicus [1]) was 0.9 µM·kg·h/mg and the clearance [2] was 38.1 mL/min/kg. For the same compound, the metabolised at 0.5 h, 15 µM [11] was 64%, the Papp [4] was 50.5 ×10⁻⁶ cm/s and the bioavailability [5] was 4%. For the same compound, the half-life [6] was 0.72 h and the metabolised at 0.5 h, 15 µM [21] was 79%.

`C[C@H](NC(=O)c1ccc(N2C3CCC2CC(NC(=O)c2ccc(C(N)=O)c(NC4CCC4)c2)C3)nc1)c1ccc(N2CCN(C)CC2)cc1` (stereo partly drawn) gave a Papp [4] of 0.46 ×10⁻⁶ cm/s, an IC50 (Heat shock protein HSP90 [12]) of 59 nM and an IC50 (Heat shock protein HSP90 [14]) of 160 nM.
